According to US10183944B2 (Asana Biosciences, LLC, priority 2011, dated 2019):

Biological target: Syk (356-635 amino acids) catalytic domain (Homo sapiens (Human), UniProt P43405)
Assay: Inhibition of enzymatic Syk kinase activity (radiometric)
Type: biochemical
Details: read-out: IC50 Syk
From the text: The objective of this assay was to examine by radiometric method the ability of compounds to inhibit Syk kinase enzyme. Syk is capable of phosphorylating substrates such as VAV, LAT, SLP-76, which in turn activate MAPK, PLCγ signaling pathways. […] This in vitro assay tests the ability of syk to phosphorylate a substrate peptide in the presence of ATP. By using a radio-labeled form of ATP, it is possible to measure the amount of phosphorylation of the substrate. The enzyme transfers a radio-labeled phosphate group from γ32 P labeled ATP to pG4T. Briefly the enzyme was incubated with substrate, radio-labeled & cold ATP and substrate in buffer with or without compounds. At the end of the reaction, the reaction mixture was transferred on to a Multiscreen filter plate and unreacted γ^32P ATP was washed off. The filter plate was dried and the radioactivity was measured on a scintillation counter to estimate the incorporated radioactivity on the substrate. The percent inhibition of activity of the enzyme was calculated by comparing counts in the presence and absence of compounds. […] 2.5 μL of 10% DMSO or compound in 10% DMSO was added to the wells in a 96 well V-bottom plate. Optimized concentration of in-house Syk enzyme (different batches of Syk (356-635) kinase domain) were used at optimized concentrations) ranging from 0.035 ng to 7.5 ng/reaction diluted in assay buffer was added to a total volume of 12.5 μL). Compound and protein were incubated for 30 minutes at room temperature on a plate shaker. Ten μL of a substrate mix containing 100 μM ATP (0.25 μL), γ-P^32-ATP (0.1 μL; 10 μCi/μL), pG4T (0.25 μL; 10 mg/mL) and 1× assay buffer (9.4 μL) was added to all the wells. Samples were incubated at 30° C. for 10 minutes after mixing. The reaction was stopped by the addition of 8N HCl (13 μL) containing 100 mM ATP. Thirty μL of sample was transferred to the center of a 2×2 cm^2 Whatman® P81 chromatography paper. After allowing the sample to dry for one minute, the assay squares were washed 3 times for 5 minutes each in ortho-phosphoric acid (0.5%) and once in acetone. Assay squares were dried for 15 minutes in a 30° C. oven and transferred to 96 well optiplate. Microscint-O® reagent (100 μL, Perkin Elmer) was added to each well, the plate was sealed with Topseal®-A microplates and incubated for 10 minutes at room temperature at very low speed on rocker and the plate was read in the Topcount® NXL instrument. The following calculations were made: Fold induction=radioactivity counts (uncorrected values) in positive control/substrate control.

| SMILES | IC50 |
| --- | --- |
| O=c1[nH]ncc2nc(-c3ccccc3)nc(Nc3ccc(OC[C@@H]4CO[C@@H](CO)CO4)cc3)c12 [Example 122, 4-((4-(((2S,5S)-5-(hydroxymethyl)-1,4-dioxan-2-yl)methoxy)phenyl)amino)-2-phenylpyrimido[4,5-d]pyridazin-5(6H)-one] | > 100 nM |
| N#CCC1CCN(c2nc(Nc3ccc4c(c3)OCO4)c3c(=O)[nH]ncc3n2)CC1 [Example 328, 2-(1-(4-(benzo[d][1,3]dioxol-5-ylamino)-5-oxo-5,6-dihydropyrimido[4,5-d]pyridazin-2-yl)piperidin-4-yl) acetonitrile] | > 100 nM |
| CC1CN(c2nc(Nc3ccc(OCCN4CCNCC4)cc3)c3c(=O)[nH]ncc3n2)CC(C)O1 (stereo not shown) [Example 177, 2-(2,6-dimethylmorpholino)-4-((4-(2-(piperazin-1-yl)ethoxy)phenyl)amino) pyrimido[4,5-d]pyridazin-5(6H)-one] | > 100 nM |
| N#CCC1CCN(c2ccc(Nc3nc(-c4ccccc4)nc4cn[nH]c(=O)c34)cc2)CC1 [Example 82, 2-(1-(4-((5-oxo-2-phenyl-5,6-dihydropyrimido[4,5-d]pyridazin-4-yl)amino)phenyl)piperidin-4-yl)acetonitrile] | > 100 nM |
| CCN1CCN(CCn2cc(Nc3nc(-c4ccccc4)nc4cn[nH]c(=O)c34)cn2)CC1 [Example 65, 4-((1-(2-(4-ethylpiperazin-1-yl)ethyl)-1H-pyrazol-4-yl)amino)-2-phenylpyrimido[4,5-d]pyridazin-5(6H)-one] | > 100 nM |
| O=c1[nH]ncc2nc(-c3ccccc3)nc(Nc3ccc(OCCN4CCOCC4)cc3)c12 [Example 94, 4-((4-(2-morpholinoethoxy)phenyl)amino)-2-phenylpyrimido[4,5-d]pyridazin-5(6H)-one] | < 100 nM |
| COc1ccc(Nc2nc(N3CCC(CC#N)CC3)nc3cn[nH]c(=O)c23)cc1OC [Example 319, 2-(1-(4-((3,4-dimethoxyphenyl)amino)-5-oxo-5,6-dihydropyrimido[4,5-d]pyridazin-2-yl)piperidin-4-yl)acetonitrile] | > 100 nM |
| CCOC(=O)C1CC12CCN(c1ccc(Nc3nc(-c4ccccc4)nc4cn[nH]c(=O)c34)cc1)CC2 (stereo not shown) [Example 20, ethyl 6-(4-(5-oxo-2-phenyl-5,6-dihydropyrimido[4,5-d]pyridazin-4-ylamino)phenyl)-6-azaspiro[2.5]octane-1-carboxylate] | > 100 nM |
| N#CC1CCN(c2nc(Nc3ccc(N4CCC5(CC4)CC5C(=O)O)cc3)c3c(=O)[nH]ncc3n2)CC1 (stereo not shown) [Example 74, 6-(4-((2-(4-cyanopiperidin-1-yl)-5-oxo-5,6-dihydropyrimido[4,5-d]pyridazin-4-yl)amino)phenyl)-6-azaspiro[2.5]octane-1-carboxylic acid] | > 100 nM |
| CN1CCN(CCn2cc(Nc3nc(-c4ccccc4)nc4cn[nH]c(=O)c34)cn2)CC1 [Example 64, 4-((1-(2-(4-methylpiperazin-1-yl)ethyl)-1H-pyrazol-4-yl)amino)-2-phenylpyrimido[4,5-d]pyridazin-5(6H)-one] | > 100 nM |
| O=C(O)C1CC12CCN(c1ccc(Nc3nc(-c4ccncc4)nc4cn[nH]c(=O)c34)cc1)CC2 (stereo not shown) [Example 138, 6-(4-((5-oxo-2-(pyridin-4-yl)-5,6-dihydropyrimido[4,5-d]pyridazin-4-yl)amino)phenyl)-6-azaspiro[2.5]octane-1-carboxylic acid] | > 100 nM |
| O=C1CC2(CCN(c3ccc(Nc4nc(-c5ccccc5)nc5cn[nH]c(=O)c45)cc3)CC2)N1 [Example 16, 4-(4-(2-oxo-1,7-diazaspiro[3.5]nonan-7-yl)phenylamino)-2-phenylpyrimido[4,5-d]pyridazin-5(6H)-one] | > 100 nM |
| O=C(O)CC1CCN(c2ccc(Nc3nc(C4CCCCCC4)nc4cn[nH]c(=O)c34)cc2)CC1 [Example 90, 2-(1-(4-((2-cycloheptyl-5-oxo-5,6-dihydropyrimido[4,5-d]pyridazin-4-yl)amino)phenyl)piperidin-4-yl)acetic acid] | < 100 nM |
